Data as given in ChEMBL document CHEMBL1138046, “Discovery of a new boron-containing antifungal agent, 5-fluoro-1,3-dihydro-1-hydroxy-2,1- benzoxaborole (AN2690), for the potential treatment of onychomycosis” (2006).
≈ marks a conversion by molar mass, not a printed value.

Experiments:
[1] = tested on: Trichophyton benhamiae; assay: Antifungal activity against Trichophyton mentagrophytes; type: functional, Arthroderma benhamiae
[2] = tested on: Aspergillus fumigatus; assay: Antifungal activity against Aspergillus fumigatus; type: functional
[3] = tested on: Cryptococcus neoformans; assay: Antifungal activity against Cryptococcus neoformans; type: functional
[4] = tested on: Candida albicans; assay: Antifungal activity against Candida albicans; type: functional
[5] = tested on: Trichophyton rubrum; assay: Antifungal activity against Trichophyton rubrum; type: functional

Compound | MIC [1] [µg/mL] | MIC [2] [µg/mL] | MIC [3] [µg/mL] | MIC [4] [µg/mL] | MIC [5] [µg/mL]
Fc1ccc(B2OCc3ccccc32)cc1 | 4 (≈ 18.9 µM) | 2 (≈ 9.43 µM) | 2 (≈ 9.43 µM) | 4 (≈ 18.9 µM) | 8 (≈ 37.7 µM)
c1ccc(B2OCCc3ccccc32)cc1 | 8 (≈ 38.4 µM) | 16 (≈ 76.9 µM) | 16 (≈ 76.9 µM) | 8 (≈ 38.4 µM) | 8 (≈ 38.4 µM)
C=CB1OCc2cc(F)ccc21 | 2 (≈ 12.3 µM) | 2 (≈ 12.3 µM) | 4 (≈ 24.7 µM) | 1 (≈ 6.17 µM) | 4 (≈ 24.7 µM)
Fc1ccc2c(c1)COB2/C=C/c1ccccc1 | 2 (≈ 8.4 µM) | 1 (≈ 4.2 µM) | 0.5 (≈ 2.1 µM) | 0.5 (≈ 2.1 µM) | ≤ 1
Cc1cscc1B1OCc2cc(F)ccc21 | 2 (≈ 8.62 µM) | 1 (≈ 4.31 µM) | 1 (≈ 4.31 µM) | 1 (≈ 4.31 µM) | 1 (≈ 4.31 µM)
Fc1cccc(B2OCc3cc(F)ccc32)c1 | 2 (≈ 8.69 µM) | 1 (≈ 4.35 µM) | 1 (≈ 4.35 µM) | 0.5 (≈ 2.17 µM) | 1 (≈ 4.35 µM)
OCc1ccc2c(c1)COB2O | 64 (≈ 390 µM) | > 64 | > 64 | > 64 | 64 (≈ 390 µM)
OB1OCc2c(F)cccc21 | 16 (≈ 105 µM) | 32 (≈ 211 µM) | 32 (≈ 211 µM) | 64 (≈ 421 µM) | 16 (≈ 105 µM)
CC1OB(O)c2ccc(F)cc21 (stereo not given) | 16 (≈ 96.4 µM) | 16 (≈ 96.4 µM) | 32 (≈ 193 µM) | 16 (≈ 96.4 µM) | 32 (≈ 193 µM)
Fc1ccc2c(c1)COB2c1ccccc1 | 2 (≈ 9.43 µM) | 2 (≈ 9.43 µM) | 2 (≈ 9.43 µM) | 0.5 (≈ 2.36 µM) | 1 (≈ 4.72 µM)
C(=C\c1ccccc1)/B1OCc2ccccc21 | 8 (≈ 36.4 µM) | 4 (≈ 18.2 µM) | 4 (≈ 18.2 µM) | 2 (≈ 9.09 µM) | 8 (≈ 36.4 µM)
OB1OCc2ccc3ccccc3c21 | 2 (≈ 10.9 µM) | 32 (≈ 174 µM) | 32 (≈ 174 µM) | 32 (≈ 174 µM) | 4 (≈ 21.7 µM)
OB1OCc2cc(F)c(F)cc21 | 4 (≈ 23.5 µM) | 2 (≈ 11.8 µM) | 2 (≈ 11.8 µM) | 4 (≈ 23.5 µM) | 4 (≈ 23.5 µM)
OB1OCc2cccc(F)c21 | 16 (≈ 105 µM) | 4 (≈ 26.3 µM) | 32 (≈ 211 µM) | 32 (≈ 211 µM) | 16 (≈ 105 µM)
OB1OCc2cc(C(F)(F)F)ccc21 | 8 (≈ 39.6 µM) | 8 (≈ 39.6 µM) | 16 (≈ 79.2 µM) | 16 (≈ 79.2 µM) | 8 (≈ 39.6 µM)
Fc1ccc2c(c1)COB2c1cccnc1 | 32 (≈ 150 µM) | 16 (≈ 75.1 µM) | 16 (≈ 75.1 µM) | 4 (≈ 18.8 µM) | 16 (≈ 75.1 µM)
Cc1cccc(B2OCc3cc(F)ccc32)c1 | 4 (≈ 17.7 µM) | 0.5 (≈ 2.21 µM) | 0.5 (≈ 2.21 µM) | 1 (≈ 4.42 µM) | 2 (≈ 8.85 µM)

Compound | MIC [1] [µg/mL] | MIC [2] [µg/mL] | MIC [3] [µg/mL] | MIC [4] [µg/mL] | MIC [5] [µg/mL]
Cc1ccc2c(c1)COB2O | 4 (≈ 27 µM) | 2 (≈ 13.5 µM) | 8 (≈ 54.1 µM) | 2 (≈ 13.5 µM) | 8 (≈ 54.1 µM)
OB1OCCc2cc(F)ccc21 | 32 (≈ 193 µM) | 32 (≈ 193 µM) | > 64 | 64 (≈ 386 µM) | 32 (≈ 193 µM)
Fc1ccc2c(c1)COB2c1cccc(Cl)c1 | 8 (≈ 32.5 µM) | 2 (≈ 8.11 µM) | 0.5 (≈ 2.03 µM) | 0.25 (≈ 1.01 µM) | 4 (≈ 16.2 µM)
c1ccc(B2OCc3ccccc32)cc1 | 4 (≈ 20.6 µM) | 4 (≈ 20.6 µM) | 8 (≈ 41.2 µM) | 4 (≈ 20.6 µM) | 4 (≈ 20.6 µM)
Fc1cccc(B2OCc3ccccc32)c1 | 16 (≈ 75.5 µM) | 8 (≈ 37.7 µM) | 4 (≈ 18.9 µM) | 4 (≈ 18.9 µM) | 8 (≈ 37.7 µM)
Fc1ccc(B2OCc3cc(F)ccc32)cc1 | 4 (≈ 17.4 µM) | 2 (≈ 8.69 µM) | 1 (≈ 4.35 µM) | 1 (≈ 4.35 µM) | 4 (≈ 17.4 µM)
Clc1cccc(B2OCc3ccccc32)c1 | 8 (≈ 35 µM) | 8 (≈ 35 µM) | 4 (≈ 17.5 µM) | 8 (≈ 35 µM) | 16 (≈ 70 µM)
Cc1ccc(B2OCc3cc(F)ccc32)cc1 | 2 (≈ 8.85 µM) | 0.5 (≈ 2.21 µM) | 0.5 (≈ 2.21 µM) | 0.5 (≈ 2.21 µM) | 2 (≈ 8.85 µM)
N#Cc1ccc2c(c1)COB2O | 16 (≈ 101 µM) | 16 (≈ 101 µM) | 8 (≈ 50.3 µM) | 8 (≈ 50.3 µM) | 16 (≈ 101 µM)
Fc1ccc2c(c1)COB2c1ccsc1 | 4 (≈ 18.3 µM) | 1 (≈ 4.59 µM) | 1 (≈ 4.59 µM) | 1 (≈ 4.59 µM) | 1 (≈ 4.59 µM)
OB1OCc2ccc(F)cc21 | 32 (≈ 211 µM) | 8 (≈ 52.7 µM) | 32 (≈ 211 µM) | 16 (≈ 105 µM) | 16 (≈ 105 µM)
Fc1ccc2c(c1)CCOB2c1ccccc1 | 8 (≈ 35.4 µM) | 8 (≈ 35.4 µM) | 8 (≈ 35.4 µM) | 8 (≈ 35.4 µM) | 8 (≈ 35.4 µM)
Fc1ccc2c(c1)COB2c1ccoc1 | 4 (≈ 19.8 µM) | 4 (≈ 19.8 µM) | 4 (≈ 19.8 µM) | 4 (≈ 19.8 µM) | 4 (≈ 19.8 µM)
OB1OCc2cc(Cl)ccc21 [AN-2718] | 2 (≈ 11.9 µM) | 1 (≈ 5.94 µM) | 2 (≈ 11.9 µM) | 1 (≈ 5.94 µM) | 1 (≈ 5.94 µM)
OB1OCc2ccccc21 [BENZOXABOROLE] | 4 (≈ 29.9 µM) | 2 (≈ 14.9 µM) | 1 (≈ 7.47 µM) | 2 (≈ 14.9 µM) | 8 (≈ 59.7 µM)
Cc1cc(C2CCCCC2)n(O)c(=O)c1 [CICLOPIROX] | 0.5 (≈ 2.41 µM) | 1 (≈ 4.82 µM) | 0.5 (≈ 2.41 µM) | 0.5 (≈ 2.41 µM) | 0.5 (≈ 2.41 µM)
OB1OCc2cc(F)ccc21 [TAVABOROLE] | 1 (≈ 6.58 µM) | 0.25 (≈ 1.65 µM) | 0.25 (≈ 1.65 µM) | 0.5 (≈ 3.29 µM) | 1 (≈ 6.58 µM)
